One test concerns the target T1, Aurora B (Homo sapiens, UniProt Q96GD4).
T1 construct: GST-Aurora B (1-344 amino acids); GST (N); purchased Carna Biosciences 05-102
As to the kind of experiment: Aurora B Kinase Assay. The following applies: GST-Aurora B (1-344), 10 uM ATP, 90 min at 25 C. The class given is biochemical. As to the method:
To measure inhibitor activity of Aurora B inhibitors in the Caliper Life Sciences LC3000, a TTP Mosquito liquid handling instrument was used to place 0.25 ul of the appropriate concentration of inhibitor in 100% DMSO (for a dose response curve calculation) into each well of a 384-well plate. To this reaction components was added to a final volume of 25 ul: • 0.1 ng/ul GST-Aurora B (1-344 amino acids), (Carna Biosciences 05-102. N-terminal GST fusion with His tagged INCEP, accession number Q96GD4). • 10 uM ATP (Fluka, 02055) • 1 mM DTT (Sigma, D0632) • 1 mM MgCl2 (Sigma, M1028) • 1 uM substrate peptide (sequence FITC-LRRASLG-(CONH2), synthesized by Tufts Peptide Synthesis service. • 100 mM HEPES pH 7.5 (Calbiochem, 391338) • 0.015% Brij-35 (Sigma, B4184)
(§1) The reaction was incubated for 90 min at 25 C, and then stopped by the addition of 70 ul of Stop buffer (100 mM HEPES pH 7.5, 0.015% Brij-35, 10 mM EDTA (Sigma, E7889)).
The plate was read on a Caliper LC 3000 in an Off-Chip mobility shift assay format, using the following parameters for a 12-sipper chip: screening pressure −1.8 psi, upstream voltage −2700, downstream voltage −1000. These conditions caused unphosphorylated substrate and phosphorylated product peptide to resolve as separate peaks allowing direct measurement of percentage of conversion of substrate to product. The percent conversion was plotted against concentration of inhibitor to produce a sigmoidal dose response curve, from which an IC50 was calculated using XLFit for Microsoft Excel.

The test system of the next test is pS6 MDA-MB-468. As to the kind of experiment: Cellular Activity Assay (phospho-S6 in MDA-MB-468 cells). The class given is cell-based. The following applies: Homo sapiens, 2 hr compound incubation, percent pS6-positive cells. As to the method:
MDA-MB-468 cells were grown in DMEM containing glutamine supplemented with 10% Fetal Bovine Serum (FBS) and 1× antibiotics. Cells were maintained by splitting 1:3 twice a week.
For the assay, cells were plated the evening before at a density of 4000 cells per well in black polyD lysine coated 384 well plates. Cells were incubated overnight (16 to 20 hours) in growth media. Compounds at an appropriate concentration were added to the wells and incubated for 2 hr. Controls included: i) no primary, ii) rabbit isotype, iii) propidium iodide (red) only and iv) anti-phospho-S6 antibody alone (green only). Cells were then fixed in 4% paraformaldehyde for 15-20 minutes at room temperature, then washed 3×80 ul with PBS.
50 ul 10% normal goat serum (NGS) with 0.2% triton X 100 in PBS were added and incubated for 30 to 60 minutes at room temperature. Anti-phospho-S6 antibody was diluted 1:800 2% with NGS in 0.2% TritonX-100 and 30 ul added to appropriate wells. The wells were incubated overnight at 4 degrees Celsius.
Then the wells were washed with 3×80 uL PBS. The secondary green fluorescence labeled antibody (Alexa Fluor® 488 F(ab′)2 fragment goat Anti-rabbit IgG (H+L)), was diluted 1:1500 in 2% NGS with 0.2% TritonX-100, and 30 ul were added to the appropriate wells which were then incubated in the dark at room temperature for 60 minutes. Then they were washed with 4×80 ul PBS. Propidium iodide (1.5 mM stock) was diluted 1:1000 in PBS, and 50 ul were added to the appropriate wells and incubated for 30 minutes at room temperature in the dark. Propidium iodide was not washed out. Plates were read on the Acumen Explorer.
Red and green cell populations were determined using controls. The number of green cells (pS6) and total number of cells (red) were then counted and the percentage of green cells was calculated. Percent positive cell data was plotted on a log scale against concentration of compounds and IC50 values were calculated from dose response curves.

Another test deals with T2, P70S6K (T412E mutant) (Homo sapiens, UniProt P23443, T412E).
T2 construct: purchased Millipore
T2 sequence (P23443 1-421 T412E limits assumed): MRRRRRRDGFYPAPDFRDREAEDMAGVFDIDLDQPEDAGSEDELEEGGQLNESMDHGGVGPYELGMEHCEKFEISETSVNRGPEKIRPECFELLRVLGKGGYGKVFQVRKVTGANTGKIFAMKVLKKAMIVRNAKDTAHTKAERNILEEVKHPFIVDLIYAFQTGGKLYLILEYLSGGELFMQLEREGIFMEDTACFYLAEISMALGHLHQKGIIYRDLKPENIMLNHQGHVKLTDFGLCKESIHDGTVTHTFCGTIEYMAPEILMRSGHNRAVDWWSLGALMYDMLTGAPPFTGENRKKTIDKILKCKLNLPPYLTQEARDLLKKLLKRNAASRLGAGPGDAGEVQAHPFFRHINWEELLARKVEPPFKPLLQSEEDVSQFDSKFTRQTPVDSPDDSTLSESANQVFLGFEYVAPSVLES
The experiment in a line: p70S6K Enzyme Assay. The class given is biochemical. The following applies: 24 μM ATP, 90 min at 25° C., Caliper mobility shift. The method, then:
p70S6K inhibitor compounds were diluted and plated in 96 well plates. A reaction mixture including the following components were then added to the compound plate to initiate the enzyme reaction; P70S6K (3 nM, T412E mutant, Millipore) was mixed with 24 μM ATP in an assay buffer containing 100 mM Hepes (pH 7.5), 5 mM MgCl2, 1 mM DTT, 0.015% Brij and 1 μM of the substrate peptide FITC-AHA-AKRRRLSSLRA-OH (derived from the S6 ribosomal protein sequence, FITC=fluorescein isothiocyanate, AHA=6-aminohexanoic acid). The reaction was incubated for 90 min at 25° C., before the addition of 10 mM EDTA to stop the reaction. The proportion of substrate and product (phosphorylated) peptide was analysed on a Caliper Life Sciences Lab Chip 3000, using a pressure of −1.4 psi, and upstream and downstream voltages of −3000 and −700 respectively. Product peaks were resolved before substrate peaks on the resulting chromatograms.
To assess the inhibitory potential of the compounds, IC50-values were determined, as shown in Chemical Synthesis section above.

Another test has as its target T3, Akt1 (Homo sapiens, UniProt P31749).
T3 construct: 0.1 ng/ul His-AKT (Full Length), (Invitrogen, Part #P2999, Lot #641228C); His; purchased Invitrogen P2999
The experiment in a line: AKT/PKB Kinase Assay. The class given is biochemical. The conditions noted are these: His-AKT (Full Length), 160 uM ATP, 90 min at 25 C. As to the method: In order to measure AKT inhibition in the Caliper Life Sciences LC3000, a TTP Mosquito liquid handling instrument was used to place 125 nl of the appropriate concentration of inhibitor in 100% DMSO (for a dose response curve calculation) into each well of a 384-well plate. To this reaction components were added to a final volume of 12.5 ul: • 0.1 ng/ul His-AKT (Full Length), (Invitrogen, Part #P2999, Lot #641228C) • 160 uM ATP (Fluke, 02055) • 1 mM DTT (Sigma, D0632) • 1 mM MgCl2 (Sigma, M1028) • 1 uM substrate peptide (sequence FITC-AHA-GRPRTSSFAEG-NH2), synthesized by Tufts Peptide Synthesis service. • 100 mM HEPES pH 7.5 (Calbiochem, 391338) • 0.015% Brij-35 (Sigma, B4184)
as §1
The plate was read on a Caliper LC 3000 in an Off-Chip mobility shift assay format, using the following parameters for a 12-sipper chip: screening pressure −2.3 psi, upstream voltage −500, and downstream voltage −3000.
These conditions cause unphosphorylated substrate and phosphorylated product peptide to resolve as separate peaks allowing direct measurement of percentage of conversion of substrate to product. The percent conversion was plotted against concentration of inhibitor to produce a sigmoidal dose response curve, from which an IC50 was calculated.

Structures are written as SMILES.

T3 sequence (P31749 whole entry): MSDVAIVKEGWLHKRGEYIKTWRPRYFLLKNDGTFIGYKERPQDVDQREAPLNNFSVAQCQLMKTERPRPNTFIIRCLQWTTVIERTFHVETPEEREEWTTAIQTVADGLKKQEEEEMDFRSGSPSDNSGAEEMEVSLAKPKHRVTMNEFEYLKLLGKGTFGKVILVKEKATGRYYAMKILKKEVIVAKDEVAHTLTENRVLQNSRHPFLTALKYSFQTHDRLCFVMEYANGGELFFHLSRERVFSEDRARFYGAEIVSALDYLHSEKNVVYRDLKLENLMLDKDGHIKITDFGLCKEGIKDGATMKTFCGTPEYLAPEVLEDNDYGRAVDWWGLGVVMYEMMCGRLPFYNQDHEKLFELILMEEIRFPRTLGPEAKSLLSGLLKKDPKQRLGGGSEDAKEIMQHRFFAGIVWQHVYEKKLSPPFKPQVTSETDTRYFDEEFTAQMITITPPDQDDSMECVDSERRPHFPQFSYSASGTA
T1 sequence (Q96GD4 whole entry, the tested form may be a part): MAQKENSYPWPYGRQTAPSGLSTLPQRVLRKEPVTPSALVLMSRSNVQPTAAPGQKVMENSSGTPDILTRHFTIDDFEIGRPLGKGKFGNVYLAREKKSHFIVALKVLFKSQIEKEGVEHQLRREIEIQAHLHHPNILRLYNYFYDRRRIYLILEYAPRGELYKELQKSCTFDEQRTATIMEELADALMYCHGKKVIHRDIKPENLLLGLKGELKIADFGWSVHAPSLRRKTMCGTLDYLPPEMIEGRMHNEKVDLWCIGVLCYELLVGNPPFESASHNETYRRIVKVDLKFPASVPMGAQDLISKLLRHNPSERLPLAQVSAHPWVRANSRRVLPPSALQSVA
T1 sequence (Q9NQS7 803-918 partner limits assumed): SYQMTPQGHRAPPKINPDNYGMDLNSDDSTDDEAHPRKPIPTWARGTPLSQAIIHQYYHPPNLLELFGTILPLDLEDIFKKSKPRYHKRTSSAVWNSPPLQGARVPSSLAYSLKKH

The term IC50 denotes the midpoint of a concentration-inhibition curve. As for `NC(=O)c1cccc2c(N[C@H](CN3CCC3)c3ccc(F)c(F)c3F)ncnc12` [Example 19, 4-[(S)-2-Azetidin-1-yl-1-(2,3,4-trifluorophenyl)-ethylamino]-quinazoline-8-carboxylic acid amide], the IC50 amounted to 0.36 µM at Aurora B, 0.062 µM with pS6 MDA-MB-468, 0.0021 µM on P70S6K (T412E mutant) and 0.023 µM at Akt1.

Take `NC(=O)c1cccc2c(N[C@H](CN3CCC3)c3ccc4c(c3)OCO4)ncnc12` [Example 20, 4-[(S)-2-Azetidin-1-yl-1-(1-benzo[1,3]dioxol)-ethylamino]-quinazoline-8-carboxylic acid amide]: the IC50 at Aurora B is 0.3 µM; in the test with pS6 MDA-MB-468, 0.068 µM; at P70S6K (T412E mutant) it was 0.0017 µM; at Akt1, 0.12 µM.

For `N#Cc1ccc([C@@H](CN2CCC2)Nc2ncnc3c(C(N)=O)cccc23)cc1` [Example 23, 4-[(S)-2-Azetidin-1-yl-1-(4-cyano-phenyl)-ethylamino]-quinazoline-8-carboxylic acid amide], the half-maximal inhibitory concentration (IC50) on Aurora B was 0.15 µM; in the test with pS6 MDA-MB-468 it was 0.029 µM; on P70S6K (T412E mutant) it was 0.0013 µM; against Akt1 it was 0.011 µM.

Consider `NC(=O)c1cccc2c(N[C@H](CN3CCC3)c3ccc(F)cc3Cl)ncnc12` [Example 24, 4-[(S)-2-Azetidin-1-yl-1-(2-chloro-4-fluoro-phenyl)-ethylamino]-quinazoline-8-carboxylic acid amide], for which the concentration for half-maximal inhibition (IC50) on Aurora B was found to be 0.107 µM; with pS6 MDA-MB-468, 1.03 µM; at P70S6K (T412E mutant), 0.0087 µM; on Akt1, 0.077 µM.

As to `NC(=O)c1cccc2c(N[C@H](CN3CCC3)c3cc(F)ccc3Cl)ncnc12` [Example 25, 4-[(S)-2-Azetidin-1-yl-1-(2-chloro-5-fluoro-phenyl)-ethylamino]-quinazoline-8-carboxylic acid amide], the IC50 at Aurora B turned out to be 0.259 µM; with pS6 MDA-MB-468, 0.486 µM; on P70S6K (T412E mutant), 0.0031 µM; against Akt1, 0.37 µM.

Consider `NC(=O)c1cccc2c(N[C@H](CN3CCC3)c3cc(F)ccc3F)ncnc12` [Example 26, 4-[(S)-2-Azetidin-1-yl-1-(2,5-di-fluoro-phenyl)-ethylamino]-quinazoline-8-carboxylic acid amide], for which the 50% inhibitory concentration (IC50) at Aurora B worked out at 0.23 µM; with pS6 MDA-MB-468 it was 0.359 µM; on P70S6K (T412E mutant), 0.0053 µM; on Akt1, 0.098 µM.

Take `NC(=O)c1cccc2c(N[C@H](CN3CCC3)c3cccc(C(F)(F)F)c3)ncnc12` [Example 27, 4-[(S)-2-Azetidin-1-yl-1-(3-trifluoromethyl-phenyl)-ethylamino]-quinazoline-8-carboxylic acid amide]: the IC50 against Aurora B stood at 0.18 µM; with pS6 MDA-MB-468, 0.056 µM; at P70S6K (T412E mutant), 0.0014 µM; against Akt1, 0.0056 µM.

`NC(=O)c1cccc2c(N[C@H](CN3CCC3)c3ccc(OC(F)(F)F)cc3)ncnc12` [Example 30, 4-[(S)-2-Azetidin-1-yl-1-(4-trifluoromethoxy-phenyl)-ethylamino]-quinazoline-8-carboxylic acid amide]: the IC50 worked out at 0.37 µM at Aurora B, 0.199 µM in the test with pS6 MDA-MB-468, 0.0017 µM at P70S6K (T412E mutant) and 0.187 µM at Akt1.

Consider `NC(=O)c1cccc2c(N[C@H](CN3CCC3)c3ccc(F)c(C(F)(F)F)c3)ncnc12` [Example 31, 4-[(S)-2-Azetidin-1-yl-1-(4-fluoro-3-trifluoromethyl-phenyl)-ethylamino]-quinazoline-8-carboxylic acid amide], for which the IC50 worked out at 0.285 µM on Aurora B, 0.028 µM in the test on pS6 MDA-MB-468, 0.0024 µM at P70S6K (T412E mutant) and 0.0073 µM against Akt1.

Turning to `NC(=O)c1cccc2c(N[C@H](CN3CCC3)c3cc(F)c(F)c(F)c3)ncnc12` [Example 37, 4-[(S)-2-Azetidin-1-yl-1-(3,4,5-trifluorophenyl)-ethylamino]-quinazoline-8-carboxylic acid amide], the IC50 was found to be 0.2 µM against Aurora B, 0.13 µM with pS6 MDA-MB-468, 0.0028 µM on P70S6K (T412E mutant) and 0.025 µM on Akt1.

As for `COc1c(F)cc([C@@H](CN2CCC2)Nc2ncnc3c(C(N)=O)cccc23)cc1F` [Example 38, 4-[(S)-2-Azetidin-1-yl-1-(3,5-difluoro-4-methoxyphenyl)-ethylamino]-quinazoline-8-carboxylic acid amide], the IC50 on Aurora B turned out to be 0.28 µM; in the test on pS6 MDA-MB-468 it was 0.113 µM; on P70S6K (T412E mutant), 0.0018 µM; against Akt1 it was 0.14 µM.

For `N#Cc1cc([C@@H](CN2CCC2)Nc2ncnc3c(C(N)=O)cccc23)ccc1F` [Example 39, 4-[(S)-2-Azetidin-1-yl-1-(3-cyano-4-fluorophenyl)-ethylamino]-quinazoline-8-carboxylic acid amide], the 50% inhibitory concentration (IC50) at Aurora B was found to be 0.65 µM; in the test with pS6 MDA-MB-468 it was 0.246 µM; at P70S6K (T412E mutant) it was 0.0033 µM; against Akt1, 0.083 µM.

Turning to `Cc1cc([C@@H](CN2CCC2)Nc2ncnc3c(C(N)=O)cccc23)ccc1F` [Example 42, 4-[(S)-2-Azetidin-1-yl-1-(4-fluoro-3-methyl-phenyl)-ethylamino]-quinazoline-8-carboxylic acid amide], the IC50 is 0.12 µM at Aurora B, 0.032 µM in the test with pS6 MDA-MB-468, 0.0016 µM on P70S6K (T412E mutant) and 0.023 µM at Akt1.

Values taken from patent publication US8946247B2, “Quinazoline carboxamide azetidines” (Merck Patent GmbH, priority 2010, dated 2015).
